# According to patent US7754754B2, “Pharmaceutical formulations containing substituted 2 heteroarylaminoacetic acid compounds” (Gruenenthal GmbH, priority 2003, dated 2010):
# What was measured:
# [1] = biological target: T1, glycineB binding site of the NMDA receptor channel (Rattus norvegicus, UniProt P35439); experiment: Receptor binding study, displacement of (3H)-MDL 105.519 from rat brain membrane homogenates; settings: 10 μM of the compound under test, rat cortex and hippocampus membrane homogenate; for inhibition at 10 µM: read-out: % inhibition (percentage fraction of the bound radioactive ligand displaced from its specific binding)
# T1 construct: the cortex and hippocampus are dissected out of freshly harvested rat brains and homogenised; from tissue; host or cells: rat (Wistar, male) brain cortex and hippocampus membrane homogenate
# Description: (a) Receptor Binding Study (glycineB Binding Site of the NMDA Receptor Channel)
# The affinity of the compounds of the above general formula I used according to the invention for the glycine binding site of the NMDA receptor channel is determined using brain membrane homogenates (homogenate of cortex and hippocampus area from the brain of male rats, Wistar strain), as for example described in B. M. Baron, B. W. Siegel, B. L. Harrison, R. S. Gross, C. Hawes and P. Towers, Journal of Pharmacology and Experimental Therapeutics, (1996), vol. 279, page 62. The corresponding literature description is hereby introduced as a reference and is deemed to be part of the disclosure.
# To this end, the cortex and hippocampus are dissected out of freshly harvested rat brains and homogenised with ice cooling in 5 mmol/l of TRIS-acetate buffer, […] of sucrose, pH 7.4 (10 ml/g fresh weight) using a Potter homogeniser (Braun/Melsungen, 10 piston strokes at 500 rpm) and then centrifuged for 10 minutes at 1,000 g and 4° C. The first supernatant is collected and the sediment again homogenised with ice cooling with 5 mmol/l of tris-acetate buffer, 0.32 mol/l of sucrose, pH 7.4 (5 ml/g of original fresh weight) with the Potter homogeniser (10 piston strokes at 500 rpm) and centrifuged for 10 minutes at 1,000 g and 4° C. The resultant supernatant is combined with the supernatant from the first centrifugation and centrifuged at 17,000 g for 20 minutes at 4° C. The supernatant after this centrifugation is discarded and the membrane sediment resuspended with 5 mmol/l of TRIS-acetate buffer, pH 8.0 (20 ml/g of original fresh weight) and homogenised with 10 piston strokes at 500 rpm.
# The membrane homogenate is then incubated for 1 hour at 4° C. and centrifuged for 30 minutes at 50,000 g and 4° C. The supernatant is discarded and the centrifuge tubes containing the membrane sediment are sealed with Parafilm and frozen for 24 hours at −20° C. On the following day, the membrane sediment is thawed and resuspended with ice-cold 5 mmol/I TRIS-acetate buffer, 0.1% saponin (wt./vol.), pH 7.0 (10 ml/g of original fresh weight) and homogenised with 10 piston strokes at 500 rpm and then centrifuged for 20 minutes at 50,000 g and 4° C. The resultant supernatant is discarded and the sediment resuspended in a small volume with 5 mmol/l of TRIS-acetate buffer, pH 7.0 (approx. 2 ml/g of original fresh weight) and again homogenised with 10 piston strokes at 500 rpm. After determination of the protein content, the membrane homogenate is adjusted with 5 mmol/l TRIS-acetate buffer, pH 7.0, to a protein concentration of 10 mg of protein/ml and frozen in aliquots until used for testing.
# The receptor binding test is performed by thawing aliquots, diluting them 1:10 with 5 mmol/l TRIS-acetate buffer, pH 7.0, homogenising them with ice-cooling with 10 piston strokes at 500 rpm with the Potter homogeniser (10 piston strokes at 500 rpm) and centrifuging them for 60 minutes at 55,000 g at 4° C. The supernatant is decanted and the membrane sediment adjusted with ice-cold 50 mmol/l TRIS-acetate buffer, pH 7.0, to a protein concentration of 1 mg/ml and again homogenised with 10 piston strokes at 500 rpm and kept in suspension in an ice bath with stirring on a magnetic stirrer. This membrane homogenate is used in the receptor binding test in a quantity of 100 μl per 1 ml batch (0.1 mg of protein/ml in the final batch). In the binding test, the buffer used is 50 mmol/l TRIS-acetate buffer, pH 7.0, and the radioactive ligand […] of (3H)-MDL 105.519 (B. M. Baron et al. 1996). The level of nonspecific binding is determined in the presence of 1 mmol/l of glycine.
# In further batches, the compounds used according to the invention are added in concentration series and the displacement of the radioactive ligand from its specific binding at the glycine-binding site of the NMDA receptor channel is determined. […]
# male albino mice (NMRI) = experiment: Formaldehyde test (mouse), second (late) phase; type: in vivo; settings: formaldehyde-induced nociception
# Description: (b) Formaldehyde Test (Mouse)
# The investigations for determining the antinociceptive action of the substituted 2-heteroarylaminoacetic acid compounds of the above general formula I used according to the invention are carried out by the formaldehyde test on male albino mice (NMRI, 25-35 g, Iffa, Credo, Belgium).
# In the formaldehyde test, a distinction is drawn between the first (early) phase (0-15 min after formaldehyde injection) and the second (late) phase (15-60 min after formaldehyde injection) (D. Dubuisson et al., Pain, vol. 4, pp. 161-174 (1977)). The early phase, being a direct response to the formaldehyde injection, is considered to be a model of acute pain, while the late phase is considered to be a model of persistent (chronic) pain (T. J. Coderre et al., Pain, vol. 52, pp. 259-285 (1993)). The corresponding literature descriptions are hereby introduced as a reference and are deemed to be part of the disclosure.
# The substituted 2-heteroarylaminoacetic acid compounds of the above general formula I used according to the invention are investigated in the second phase of the formaldehyde test in order to obtain information regarding the action of the substances in chronic/inflammatory pain.
# A nociceptive reaction is induced in the freely mobile test animals by a single, subcutaneous formaldehyde injection (20 μl, 1% aqueous solution) into the dorsal side of the rear hind paw, the reaction being expressed by distinct licking and biting of the affected paw.
# For the investigation period in the second (late) phase of the formaldehyde test, nociceptive behaviour is continuously recorded by observing the animals. […] After injection of the substances which are antinociceptively active in the formaldehyde test, the described behaviours of the animals are reduced or even eliminated. In the same manner as in the substance tests, in which the animals receive an injection of test substance before the formaldehyde, the control animals are injected with vehicle, i.e. solvent (for example 0.9% NaCl solution) before administration of the formaldehyde. The behaviour the animals after administration of the substance (n=10 per substance dose) is compared with a control group (n=10). On the basis of the quantification of the pain behaviour, the action of the substance in the formaldehyde test is determined as a percentage change of the control. ED50 calculations are carried out by regression analysis. The time of administration before the formaldehyde injection was selected as a function of the mode of administration of the compounds used according to the invention (intraperitoneal: 15 min; intravenous: 5 min).
Compound,inhibition at 10 µM [1] [%],Inhibition (%) at dose (male albino mice (NMRI); at 46.4 mg/kg),Inhibition (%) at dose (male albino mice (NMRI); at 10 mg/kg),% inhibition (percentage fraction of the bound radioactive ligand displaced from its specific binding) [1] [%]
"O=C([O-])C(Nc1cc(Cl)cc(Cl)c1)c1cc2ccccc2o1.[Na+] (centres unmarked) [Example 6, (Benzofuran-2-yl)-(3,5-dichlorophenylamino)acetic acid, sodium salt]",97,,42% (at 10 mg/kg),
"O=C([O-])C(Nc1cc(Cl)cc(Cl)c1)c1cc2ccccc2s1.[Na+] (centres unmarked) [Example 7, (Benzo[b]thiophen-2-yl)-(3,5-dichlorophenylamino)acetic acid, sodium salt]",,11% (at 46.4 mg/kg),,85
"O=C([O-])C(Nc1cc(Cl)cc(Cl)c1)c1csc2ccccc12.[Na+] (centres unmarked) [Example 8, (Benzo[b]thiophen-3-yl)-(3,5-dichlorophenylamino)acetic acid, sodium salt]",,,,24
"(Benzo[b]furan-2-yl)-(3,5-bis(trifluoromethyl)phenyl)acetic acid, sodium salt [Example 10]",,60% (at 46.4 mg/kg),,29
"(Benzo[b]thiophen-2-yl)-(3,5-bis(trifluoromethyl)phenyl)acetic acid, sodium salt [Example 9]",,,,13

# Continued, in another order:
inhibition at 10 µM [1] [%],Compound,Inhibition (%) at dose (male albino mice (NMRI); at 46.4 mg/kg),Inhibition (%) at dose (male albino mice (NMRI); at 10 mg/kg),% inhibition (percentage fraction of the bound radioactive ligand displaced from its specific binding) [1] [%]
85,"O=C(O)C(Nc1cc(Cl)cc(Cl)c1)c1cc2ccccc2s1 (centres unmarked) [Example 2, (Benzo[b]thiophen-2-yl)-(3,5-dichlorophenylamino)acetic acid]",55% (at 46.4 mg/kg),,
15,"O=C(O)C(Nc1cc(Cl)cc(Cl)c1)c1csc2ccccc12 (centres unmarked) [Example 3, (Benzo[b]thiophen-3-yl)-(3,5-dichlorophenylamino)acetic acid]",,,
